Source: the NIST ThermoML archive (doi:10.1016/j.jct.2010.10.016)
± gives the expanded uncertainty stated by the source.

Assay: xn = mol fraction of the nth substance listed
Conditions: 101 kPa, Liquid; for viscosity: Capillary tube (Ostwald / Ubbelohde) method; for mass density: Pycnometric method; for speed of sound: Resonance method

CCCCOCCO [2-butoxyethan-1-ol] + C[N+](=O)[O-]
Conditions	mass density [kg/m3]	speed of sound [m/s]	viscosity [mPa·s]
293.15 K, x2 = 0	901.19 ± 0.46	1323.9 ± 2.3	3.239 ± 0.029
293.15 K, x2 = 0.05	905.83 ± 0.47	–	–
293.15 K, x2 = 0.0507	–	1322.4 ± 2.3	–
293.15 K, x2 = 0.0557	–	–	3.019 ± 0.027
293.15 K, x2 = 0.0999	910.77 ± 0.48	–	–
293.15 K, x2 = 0.1001	–	1321.8 ± 2.3	–
293.15 K, x2 = 0.106	–	–	2.815 ± 0.025
293.15 K, x2 = 0.1974	–	–	2.451 ± 0.021
293.15 K, x2 = 0.2	921.75 ± 0.5	–	–
293.15 K, x2 = 0.2003	–	1318.8 ± 2.3	–
293.15 K, x2 = 0.3	934.29 ± 0.52	–	–
293.15 K, x2 = 0.3003	–	1316.1 ± 2.3	–
293.15 K, x2 = 0.3083	–	–	2.031 ± 0.017
293.15 K, x2 = 0.4	948.84 ± 0.54	–	–
293.15 K, x2 = 0.4005	–	1313.7 ± 2.3	–
293.15 K, x2 = 0.4014	–	–	1.716 ± 0.014
293.15 K, x2 = 0.4487	–	–	1.571 ± 0.013
293.15 K, x2 = 0.4997	–	–	1.432 ± 0.012
293.15 K, x2 = 0.5	966.21 ± 0.57	–	–
293.15 K, x2 = 0.5002	–	1312 ± 2.3	–
293.15 K, x2 = 0.5492	–	–	1.307 ± 0.011
293.15 K, x2 = 0.5947	–	–	1.203 ± 0.01
293.15 K, x2 = 0.6	987.24 ± 0.6	1311.8 ± 2.3	–
293.15 K, x2 = 0.699	–	–	0.996 ± 0.009
293.15 K, x2 = 0.7	1013.09 ± 0.64	1313.7 ± 2.3	–
293.15 K, x2 = 0.7999	–	1318.2 ± 2.4	–
293.15 K, x2 = 0.8002	1045.18 ± 0.7	–	–
293.15 K, x2 = 0.8012	–	–	0.838 ± 0.008
293.15 K, x2 = 0.8981	–	–	0.72 ± 0.007
293.15 K, x2 = 0.8999	1085.39 ± 0.7	1326.4 ± 2.4	–
293.15 K, x2 = 0.9475	–	–	0.679 ± 0.007
293.15 K, x2 = 0.95	–	1332.4 ± 2.4	–
293.15 K, x2 = 0.9503	1109.89 ± 0.69	–	–
298.15 K, x2 = 0	896.29 ± 0.45	1306.8 ± 2.3	–
298.15 K, x2 = 0.05	900.85 ± 0.45	–	–
298.15 K, x2 = 0.0507	–	1305.6 ± 2.3	–
298.15 K, x2 = 0.0999	905.68 ± 0.46	–	–
298.15 K, x2 = 0.1001	–	1304.5 ± 2.3	–
298.15 K, x2 = 0.2	916.48 ± 0.47	–	–
298.15 K, x2 = 0.2003	–	1302.2 ± 2.3	–
298.15 K, x2 = 0.3	928.9 ± 0.49	–	–
298.15 K, x2 = 0.3003	–	1299.6 ± 2.3	–
298.15 K, x2 = 0.4	943.34 ± 0.5	–	–
298.15 K, x2 = 0.4005	–	1297.2 ± 2.3	–
298.15 K, x2 = 0.5	960.53 ± 0.52	–	–
298.15 K, x2 = 0.5002	–	1295.5 ± 2.3	–
298.15 K, x2 = 0.6	981.35 ± 0.54	1295.2 ± 2.3	–
298.15 K, x2 = 0.7	1006.9 ± 0.57	1296.8 ± 2.3	–
298.15 K, x2 = 0.7999	–	1300.9 ± 2.3	–
298.15 K, x2 = 0.8002	1038.68 ± 0.6	–	–
298.15 K, x2 = 0.8999	1078.61 ± 0.64	1308.5 ± 2.4	–
298.15 K, x2 = 0.95	–	1313.8 ± 2.4	–
298.15 K, x2 = 0.9503	1103.01 ± 0.66	–	–
298.45 K, x2 = 0	–	–	2.825 ± 0.026
298.45 K, x2 = 0.0506	–	–	2.654 ± 0.025
298.45 K, x2 = 0.1012	–	–	2.483 ± 0.023
298.45 K, x2 = 0.2015	–	–	2.165 ± 0.02
298.45 K, x2 = 0.2997	–	–	1.873 ± 0.017
298.45 K, x2 = 0.4047	–	–	1.581 ± 0.014
298.45 K, x2 = 0.4498	–	–	1.464 ± 0.013
298.45 K, x2 = 0.5008	–	–	1.339 ± 0.012
298.45 K, x2 = 0.5481	–	–	1.234 ± 0.011
298.45 K, x2 = 0.5976	–	–	1.131 ± 0.01
298.45 K, x2 = 0.6984	–	–	0.943 ± 0.009
298.45 K, x2 = 0.7981	–	–	0.8 ± 0.008
298.45 K, x2 = 0.8986	–	–	0.689 ± 0.007
298.45 K, x2 = 0.9394	–	–	0.655 ± 0.007
303.15 K, x2 = 0	892.35 ± 0.45	1290.6 ± 2.3	2.449 ± 0.024
303.15 K, x2 = 0.05	896.7 ± 0.46	–	–
303.15 K, x2 = 0.0507	–	1289.5 ± 2.3	–
303.15 K, x2 = 0.0522	–	–	2.307 ± 0.023
303.15 K, x2 = 0.0999	901.4 ± 0.47	–	–
303.15 K, x2 = 0.1001	–	1288.6 ± 2.3	–
303.15 K, x2 = 0.1004	–	–	2.171 ± 0.021
303.15 K, x2 = 0.2	911.94 ± 0.48	–	–
303.15 K, x2 = 0.2003	–	1286.3 ± 2.3	–
303.15 K, x2 = 0.2155	–	–	1.85 ± 0.018
303.15 K, x2 = 0.299	–	–	1.635 ± 0.016
303.15 K, x2 = 0.3	924.13 ± 0.5	–	–
303.15 K, x2 = 0.3003	–	1283.6 ± 2.3	–
303.15 K, x2 = 0.3996	–	–	1.399 ± 0.013
303.15 K, x2 = 0.4	938.41 ± 0.51	–	–
303.15 K, x2 = 0.4005	–	1281.1 ± 2.3	–
303.15 K, x2 = 0.4495	–	–	1.292 ± 0.012
303.15 K, x2 = 0.5	955.38 ± 0.53	–	–
303.15 K, x2 = 0.5002	–	1279.2 ± 2.3	1.191 ± 0.011
303.15 K, x2 = 0.5482	–	–	1.102 ± 0.01
303.15 K, x2 = 0.5993	–	–	1.01 ± 0.01
303.15 K, x2 = 0.6	975.84 ± 0.55	1278.5 ± 2.3	–
303.15 K, x2 = 0.6998	–	–	0.858 ± 0.008
303.15 K, x2 = 0.7	1000.85 ± 0.58	1279.5 ± 2.3	–
303.15 K, x2 = 0.7994	–	–	0.738 ± 0.007
303.15 K, x2 = 0.7999	–	1282.9 ± 2.3	–
303.15 K, x2 = 0.8002	1032.09 ± 0.61	–	–
303.15 K, x2 = 0.8999	1071.54 ± 0.64	1288.9 ± 2.3	–
303.15 K, x2 = 0.9005	–	–	0.648 ± 0.007
303.15 K, x2 = 0.9436	–	–	0.619 ± 0.006
303.15 K, x2 = 0.95	–	1293.2 ± 2.4	–
303.15 K, x2 = 0.9503	1095.83 ± 0.66	–	–
308.15 K, x2 = 0	887.83 ± 0.46	1273.5 ± 2.3	2.079 ± 0.022
308.15 K, x2 = 0.05	891.97 ± 0.47	–	–
308.15 K, x2 = 0.0501	–	–	1.967 ± 0.021
308.15 K, x2 = 0.0507	–	1273.1 ± 2.3	–
308.15 K, x2 = 0.0999	896.44 ± 0.48	–	–
308.15 K, x2 = 0.1001	–	1272.2 ± 2.3	–
308.15 K, x2 = 0.1048	–	–	1.844 ± 0.019
308.15 K, x2 = 0.198	–	–	1.639 ± 0.017
308.15 K, x2 = 0.2	906.69 ± 0.49	–	–
308.15 K, x2 = 0.2003	–	1270.2 ± 2.3	–
308.15 K, x2 = 0.3	918.65 ± 0.51	–	–
308.15 K, x2 = 0.3003	–	1267.9 ± 2.3	–
308.15 K, x2 = 0.3012	–	–	1.427 ± 0.014
308.15 K, x2 = 0.3999	–	–	1.243 ± 0.012
308.15 K, x2 = 0.4	932.71 ± 0.52	–	–
308.15 K, x2 = 0.4005	–	1265.9 ± 2.3	–
308.15 K, x2 = 0.4502	–	–	1.154 ± 0.011
308.15 K, x2 = 0.4998	–	–	1.071 ± 0.011
308.15 K, x2 = 0.5	949.47 ± 0.54	–	–
308.15 K, x2 = 0.5002	–	1264.2 ± 2.3	–
308.15 K, x2 = 0.5499	–	–	0.991 ± 0.01
308.15 K, x2 = 0.5998	–	–	0.917 ± 0.009
308.15 K, x2 = 0.6	969.67 ± 0.56	1263.4 ± 2.3	–
308.15 K, x2 = 0.6994	–	–	0.786 ± 0.008
308.15 K, x2 = 0.7	994.45 ± 0.58	1264.3 ± 2.3	–
308.15 K, x2 = 0.7997	–	–	0.685 ± 0.007
308.15 K, x2 = 0.7999	–	1267.3 ± 2.3	–
308.15 K, x2 = 0.8002	1025.45 ± 0.62	–	–
308.15 K, x2 = 0.8986	–	–	0.616 ± 0.007
308.15 K, x2 = 0.8999	1064.77 ± 0.65	1273.2 ± 2.3	–
308.15 K, x2 = 0.9465	–	–	0.59 ± 0.006
308.15 K, x2 = 0.95	–	1276.9 ± 2.3	–
308.15 K, x2 = 0.9503	1089.08 ± 0.67	–	–
313.15 K, x2 = 0	883.59 ± 0.46	1257.7 ± 2.3	1.689 ± 0.02
313.15 K, x2 = 0.05	887.43 ± 0.47	–	–
313.15 K, x2 = 0.0507	–	1257.4 ± 2.3	–
313.15 K, x2 = 0.0511	–	–	1.606 ± 0.019
313.15 K, x2 = 0.0999	891.75 ± 0.47	–	–
313.15 K, x2 = 0.1001	–	1256.8 ± 2.3	–
313.15 K, x2 = 0.1135	–	–	1.493 ± 0.018
313.15 K, x2 = 0.2	901.79 ± 0.48	–	–
313.15 K, x2 = 0.2003	–	1254.9 ± 2.3	–
313.15 K, x2 = 0.2156	–	–	1.314 ± 0.016
313.15 K, x2 = 0.2993	–	–	1.18 ± 0.014
313.15 K, x2 = 0.3	913.58 ± 0.49	–	–
313.15 K, x2 = 0.3003	–	1252.7 ± 2.3	–
313.15 K, x2 = 0.3971	–	–	1.042 ± 0.012
313.15 K, x2 = 0.4	927.46 ± 0.49	–	–
313.15 K, x2 = 0.4005	–	1250.6 ± 2.3	–
313.15 K, x2 = 0.4497	–	–	0.974 ± 0.011
313.15 K, x2 = 0.4973	–	–	0.915 ± 0.01
313.15 K, x2 = 0.5	943.98 ± 0.5	–	–
313.15 K, x2 = 0.5002	–	1248.8 ± 2.3	–
313.15 K, x2 = 0.5458	–	–	0.858 ± 0.009
313.15 K, x2 = 0.5989	–	–	0.798 ± 0.009
313.15 K, x2 = 0.6	963.96 ± 0.51	1248 ± 2.3	–
313.15 K, x2 = 0.6958	–	–	0.698 ± 0.008
313.15 K, x2 = 0.7	988.46 ± 0.52	1248.7 ± 2.3	–
313.15 K, x2 = 0.7999	–	1251.4 ± 2.3	–
313.15 K, x2 = 0.8002	1018.86 ± 0.54	–	–
313.15 K, x2 = 0.8004	–	–	0.617 ± 0.007
313.15 K, x2 = 0.893	–	–	0.572 ± 0.006
313.15 K, x2 = 0.8999	1057.69 ± 0.6	1256.3 ± 2.3	–
313.15 K, x2 = 0.9491	–	–	0.556 ± 0.006
313.15 K, x2 = 0.95	–	1259.5 ± 2.3	–
313.15 K, x2 = 0.9503	1081.78 ± 0.64	–	–
